Laboratory results reported in patent US8461305B2, “L-fucose α1→6 specific lectin” (J-Oil Mills, Inc., priority 2008, dated 2013).

Key:
[1] = frontal affinity chromatography (FAC), association constant to PA sugar chains without L-fucose; type: binding; settings: 25 degrees C.
Outline: (§1)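 Lectin coupled via primary amines to NHS-activated sepharose in a miniature column, run in TBS (pH 7.4) at 0.125 ml/min and 25 degrees C. PA sugar chains (3.75 nM or 7.5 nM) applied in excess, with elution monitored by fluorescence (ex 310/em 380 nm). Ka calculated from front-end delay (V−Vo) versus PA rhamnose and effective ligand amount (Bt).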

[2] = frontal affinity chromatography (FAC), association constant to PA sugar chains having other L-fucose; type: binding; settings: 25 degrees C.
Outline: as §1

## Aspergillus oryzae lectin [AOL, reference compound]
[1]; Sugar chain No. 001
  association constant Ka: <1000 M⁻¹
[1]; Sugar chain No. 002
  association constant Ka: <1000 M⁻¹
[1]; Sugar chain No. 003
  association constant Ka: <1000 M⁻¹
[1]; Sugar chain No. 004
  association constant Ka: <1000 M⁻¹
[1]; Sugar chain No. 005
  association constant Ka: 7300 M⁻¹
[1]; Sugar chain No. 006
  association constant Ka: <1000 M⁻¹
[1]; Sugar chain No. 007
  association constant Ka: <1000 M⁻¹
[1]; Sugar chain No. 008
  association constant Ka: 69000 M⁻¹
[1]; Sugar chain No. 009
  association constant Ka: <1000 M⁻¹
[1]; Sugar chain No. 010
  association constant Ka: <1000 M⁻¹
[1]; Sugar chain No. 011
  association constant Ka: <1000 M⁻¹
[1]; Sugar chain No. 012
  association constant Ka: <1000 M⁻¹
[1]; Sugar chain No. 013
  association constant Ka: <1000 M⁻¹
[1]; Sugar chain No. 014
  association constant Ka: <1000 M⁻¹
[1]; Sugar chain No. 101
  association constant Ka: <1000 M⁻¹
[1]; Sugar chain No. 103
  association constant Ka: <1000 M⁻¹
[1]; Sugar chain No. 104
  association constant Ka: <1000 M⁻¹
[1]; Sugar chain No. 105
  association constant Ka: <1000 M⁻¹
[1]; Sugar chain No. 107
  association constant Ka: <1000 M⁻¹
[1]; Sugar chain No. 108
  association constant Ka: <1000 M⁻¹
[1]; Sugar chain No. 301
  association constant Ka: 18000 M⁻¹
[1]; Sugar chain No. 304
  association constant Ka: 20000 M⁻¹
[1]; Sugar chain No. 305
  association constant Ka: <1000 M⁻¹
[1]; Sugar chain No. 307
  association constant Ka: <1000 M⁻¹
[1]; Sugar chain No. 308
  association constant Ka: 20000 M⁻¹
[1]; Sugar chain No. 313
  association constant Ka: <1000 M⁻¹
[1]; Sugar chain No. 314
  association constant Ka: <1000 M⁻¹
[1]; Sugar chain No. 323
  association constant Ka: <1000 M⁻¹
[1]; Sugar chain No. 501
  association constant Ka: <1000 M⁻¹
[1]; Sugar chain No. 502
  association constant Ka: <1000 M⁻¹
[1]; Sugar chain No. 503
  association constant Ka: <1000 M⁻¹
[1]; Sugar chain No. 504
  association constant Ka: <1000 M⁻¹
[1]; Sugar chain No. 701
  association constant Ka: <1000 M⁻¹
[1]; Sugar chain No. 702
  association constant Ka: <1000 M⁻¹
[1]; Sugar chain No. 703
  association constant Ka: <1000 M⁻¹
[1]; Sugar chain No. 704
  association constant Ka: <1000 M⁻¹
[1]; Sugar chain No. 705
  association constant Ka: <1000 M⁻¹
[1]; Sugar chain No. 706
  association constant Ka: <1000 M⁻¹
[1]; Sugar chain No. 707
  association constant Ka: <1000 M⁻¹
[1]; Sugar chain No. 708
  association constant Ka: <1000 M⁻¹
[1]; Sugar chain No. 709
  association constant Ka: <1000 M⁻¹
[1]; Sugar chain No. 710
  association constant Ka: <1000 M⁻¹
[1]; Sugar chain No. 711
  association constant Ka: <1000 M⁻¹
[1]; Sugar chain No. 712
  association constant Ka: <1000 M⁻¹
[1]; Sugar chain No. 713
  association constant Ka: <1000 M⁻¹
[1]; Sugar chain No. 715
  association constant Ka: <1000 M⁻¹
[1]; Sugar chain No. 716
  association constant Ka: <1000 M⁻¹
[1]; Sugar chain No. 717
  association constant Ka: <1000 M⁻¹
[1]; Sugar chain No. 724
  association constant Ka: <1000 M⁻¹
[1]; Sugar chain No. 725
  association constant Ka: <1000 M⁻¹
[1]; Sugar chain No. 728 (as listed in Table 7)
  association constant Ka: <1000 M⁻¹
[1]; Sugar chain No. 732
  association constant Ka: <1000 M⁻¹
[1]; Sugar chain No. 733
  association constant Ka: <1000 M⁻¹
[1]; Sugar chain No. 734
  association constant Ka: <1000 M⁻¹
[1]; Sugar chain No. 735
  association constant Ka: <1000 M⁻¹
[1]; Sugar chain No. 736
  association constant Ka: <1000 M⁻¹
[1]; Sugar chain No. 737
  association constant Ka: <1000 M⁻¹
[1]; Sugar chain No. 738
  association constant Ka: <1000 M⁻¹
[1]; Sugar chain No. 901
  association constant Ka: <1000 M⁻¹
[1]; Sugar chain No. 902
  association constant Ka: <1000 M⁻¹
[1]; Sugar chain No. 903
  association constant Ka: <1000 M⁻¹
[1]; Sugar chain No. 905
  association constant Ka: <1000 M⁻¹
[1]; Sugar chain No. 906
  association constant Ka: <1000 M⁻¹
[1]; Sugar chain No. 907
  association constant Ka: <1000 M⁻¹
[2]; Sugar chain No. 419
  association constant Ka: <1000 M⁻¹
[2]; Sugar chain No. 420
  association constant Ka: <1000 M⁻¹
[2]; Sugar chain No. 718
  association constant Ka: 170000 M⁻¹
[2]; Sugar chain No. 719
  association constant Ka: <1000 M⁻¹
[2]; Sugar chain No. 720
  association constant Ka: <1000 M⁻¹
[2]; Sugar chain No. 721
  association constant Ka: <1000 M⁻¹
[2]; Sugar chain No. 722
  association constant Ka: 56000 M⁻¹
[2]; Sugar chain No. 723
  association constant Ka: <1000 M⁻¹
[2]; Sugar chain No. 726
  association constant Ka: <1000 M⁻¹
[2]; Sugar chain No. 727
  association constant Ka: 76000 M⁻¹
[2]; Sugar chain No. 728 (as listed in Table 5/12)
  association constant Ka: 12000 M⁻¹
[2]; Sugar chain No. 729
  association constant Ka: <1000 M⁻¹
[2]; Sugar chain No. 730
  association constant Ka: <1000 M⁻¹
[2]; Sugar chain No. 731
  association constant Ka: <1000 M⁻¹
[2]; Sugar chain No. 739
  association constant Ka: <1000 M⁻¹
[2]; Sugar chain No. 909
  association constant Ka: 44000 M⁻¹
[2]; Sugar chain No. 910
  association constant Ka: 56000 M⁻¹
[2]; Sugar chain No. 931
  association constant Ka: 99000 M⁻¹
[2]; Sugar chain No. 932
  association constant Ka: <1000 M⁻¹
[2]; Sugar chain No. 933
  association constant Ka: 31000 M⁻¹
